Assay results as given in US10307424B2, “Drug with hepatoprotective activity” (priority 2015, dated 2019).

Experiments:
[1] = system: patients with toxic liver damage, alcoholic hepatitis, alcoholic liver disease (fatty hepatosis), alcoholic liver cirrhosis; experiment: Efficacy of derivatives No. 1 and No. 2 in patients with liver disease (decrease in ALT, ASAT, GGTP); format: in vivo, patients (men and women); conditions: of 30 patients
Excerpt: The study of the efficacy of derivatives No. 1 and No. 2 was additionally carried out with the participation of patients (men and women aged 25 to 60 years) with the following diagnoses: toxic liver damage, alcoholic hepatitis, alcoholic liver disease (fatty hepatosis), alcoholic liver cirrhosis.
Inclusion criteria: increased levels of alanine aminotransferase (ALT), aspartate aminotransferase (ASAT), gamma glutaminetransferase (GGTP) at least 2 times the upper limit of the normal value.
Patients of the experimental group (30 persons) adhibited derivative No. 1 in the form of capsules containing 250 mg of the drug in a total dose of 1000 mg/day.
Patients of the control group (9 persons) adhibited placebo (capsules filled with chalk).
Patients of the experimental group (30 persons) adhibited derivative No. 2 in the form of lyophilisate for IV injection containing 50 mg of the drug in a total dose of 300 mg/day.
Patients of the control group (10 persons), were administered a 0.9% solution of NaCl as a placebo.

[2] = system: toxic hepatitis modelled by combined administration of dichloroethane and acetaminophen; experiment: Combined effect of subject compounds and known hepatic drugs, toxic hepatitis by dichloroethane and acetaminophen (500 and 500 mg/kg); format: in vivo; conditions: untreated control 10
Method: Also, the combined effect of the subject compounds and known drugs for the treatment of hepatic diseases was examined.
(§1) For the modeling of toxic hepatitis, the combined administration of dichloroethane and acetaminophen in doses of 500 and 500 mg/kg, respectively, was used. After 10 days all experimental animals confirmed the presence of toxic hepatitis according to the morphological pattern of the liver.

[3] = system: Acute toxic hepatitis in rats induced by carbon tetrachloride (CCl4); experiment: Hepatoprotective activity in rats with acute toxic hepatitis induced by CCl4; format: in vivo, Wistar rats; conditions: 25 mg/kg; for Survivability of the animals by day 28: Wistar rats; for Body weight of the animals by the 20th day: surviving animals
Method: The animals were in standard housing conditions under natural light conditions, with free access to water and food. Acute toxic hepatitis in rats was induced by means of intragastric administration of 50% solution of carbon tetrachloride (CCl 4) in olive oil at a dose of 1 ml/kg for 6 days. […]
The tested preparations were administered orally in the form of a suspension in olive oil once a day after the formation of the model pathology or intravenously at a dose of 25 mg/kg. The weight dynamics of the rats were determined on Sartorius scale.

[4] = system: toxic hepatitis modelled by combined administration of dichloroethane and acetaminophen; experiment: Toxic hepatitis caused by dichloroethane and acetaminophen (300 and 250 mg/kg), treatment with derivative No. 4; format: in vivo, laboratory rats; conditions: for Cytochrome B5 / Cytochrome P450 / Glycogen / Reduced glutathione: liver
Method: The efficacy of derivative No. 4 on additional parameters was studied in laboratory rats.
as §1, with “of 300” for “of 500”, “and 250” for “and 500”, “liver. In the untreated control group, by the 10th day of the study, 4 animals out of 10 died.” for “liver.”
From that time, for 10 days, the experimental animals were administered, once a day, derivative No. 4 (50 mg/kg, intragastrically in starch mucus) or derivative No. 4 (10 mg/kg, IV, into the tail vein).

[5] = lyophilisate for IV injection, total dose 300 mg/day, control 1 of 10
[6] = Intraventricular administration, once a day
[7] = Enteral administration, 50 mg/kg intragastrically once a day, day 10
[8] = Parenteral administration, 10 mg/kg IV once a day, day 10
[9] = capsules 250 mg, total dose 1000 mg/day, control 1 of 9

O=C1NC(O)(O)C(=N[O-])C(=O)N1c1ccc(Br)cc1.[Na+] [Derivative 2]
The number of patients in the group with a decrease in ALT by 30% or more [1, 5]: 17
The number of patients in the group with a decrease in ASAT by 30% or more [1, 5]: 19
The number of patients in the group with a decrease in GGTP by 30% or more ([1]; lyophilisate for IV injection, total dose 300 mg/day, control 2 of 10): 25
Survivability by the 10th day [2]: 40%

C[S+](CC[C@H](N)C(=O)[O-])C[C@H]1O[C@@H](n2cnc3c(N)ncnc32)[C@H](O)[C@@H]1O (some centres unmarked) [Prototype, S-Adenosyl methionine-ademetionine, reference compound]
Survivability of the animals by day 28 ([3]; Intravenous administration): 48%
Body weight of the animals by the 20th day ([3]; Intravenous administration): 159 ± 4%
Survivability of the animals by day 28 [3, 6]: 46%
Body weight of the animals by the 20th day [3]: 160 ± 4%
Survivability by the 10th day [2]: 30%

NC(CO)(CO)CO.O=C1NC(O)(O)C(=NO)C(=O)N1c1ccc(Br)cc1 [Derivative 4]
-SH-group [4, 7]: 900 ± 50 μmol/100 ml
ALP [4, 7]: 0.73 ± 0.09 μkat/l
ALT [4, 7]: 0.54 ± 0.08 μkat/l
ASAT [4, 7]: 0.72 ± 0.06 μkat/l
Body weight [4, 7]: 180 ± 15 g
Bromsulfalein, at the 10th minute after the introduction [4, 7]: 19.3 ± 1.1 mg %
Ceruloplasmin [4, 7]: 520 ± 50 mg/L
ChE [4, 7]: 2.1 ± 0.2 µmol/g/min
Cholesterol [4, 7]: 1.58 ± 0.21 mmol/L
Glucose [4, 7]: 4.5 ± 0.4 mmol/L
Hexenalum sleep [4, 7]: 27.0 ± 1.5 min
LDH [4, 7]: 6.82 ± 0.34 mmol/h/L
Prothrombin time [4, 7]: 43 ± 5 s
Timole test [4, 7]: 2.86 ± 0.44 units of turbidity
Total lipids [4, 7]: 3.2 ± 0.1 g/L
Total protein [4, 7]: 52 ± 5 g/L
-SH-group [4, 8]: 640 ± 50 μmol/100 ml
ALP [4, 8]: 0.82 ± 0.12 μkat/l
ALT [4, 8]: 0.69 ± 0.06 μkat/l
ASAT [4, 8]: 0.76 ± 0.08 μkat/l
Body weight [4, 8]: 185 ± 5 g
Bromsulfalein, at the 10th minute after the introduction [4, 8]: 23.0 ± 1.6 mg %
Ceruloplasmin [4, 8]: 580 ± 80 mg/L
ChE [4, 8]: 2.2 ± 0.2 µmol/g/min
Cholesterol [4, 8]: 1.70 ± 0.26 mmol/L
Glucose [4, 8]: 4.6 ± 0.2 mmol/L
Hexenalum sleep [4, 8]: 29.5 ± 1.5 min
LDH [4, 8]: 8.24 ± 0.35 mmol/h/L
Timole test [4, 8]: 3.22 ± 0.53 units of turbidity
Total lipids [4, 8]: 2.9 ± 0.2 g/L
Total protein [4, 8]: 48 ± 4 g/L
Death of animals ([4]; enterally or parenterally injected, untreated control: 4 animals out of 10 died by the 10th day): not a single animal died
Cytochrome B5 [4, 7]: 0.54 ± 0.07 mmol/mg protein ×10^−4
Cytochrome P450 [4, 7]: 0.98 ± 0.06 mmol/mg protein ×10^−4
Glycogen [4, 7]: 1600 ± 100 mg %
Reduced glutathione [4, 7]: 165 ± 10 mg %
Cytochrome B5 [4, 8]: 0.68 ± 0.04 mmol/mg protein ×10^−4
Cytochrome P450 [4, 8]: 1.12 ± 0.03 mmol/mg protein ×10^−4
Glycogen [4, 8]: 1500 ± 200 mg %
Reduced glutathione [4, 8]: 170 ± 10 mg %
Survivability by the 10th day [2]: 40%

C[C@H](CCC(=O)O)[C@H]1CC[C@H]2[C@@H]3[C@@H](O)C[C@@H]4C[C@H](O)CC[C@]4(C)[C@H]3CC[C@]12C [Ursodeoxycholic acid, ursodeoxycholic acid, reference compound]
Survivability by the 10th day [2]: 20%

O=C1NC(O)(O)C(=NO)C(=O)N1c1ccc(Br)cc1 [Derivative 1, 3-(4-bromophenyl)-6,6-dihydroxy-5-hydroxyiminohexahydro-2,4-pyrimidinedione]
Survivability of the animals by day 28 ([3]; Intravenous administration): 57%
Body weight of the animals by the 20th day ([3]; Intravenous administration): 171 ± 5%
Survivability of the animals by day 28 ([3]; once a day): 59%
The number of patients in the group with a decrease in ALT by 30% or more [1, 9]: 23
The number of patients in the group with a decrease in ASAT by 30% or more [1, 9]: 23
The number of patients in the group with a decrease in GGTP by 30% or more ([1]; capsules 250 mg, total dose 1000 mg/day, control 2 of 9): 25
Survivability by the 10th day [2]: 40%

NCCCO.O=C1NC(O)(O)C(=NO)C(=O)N1c1ccc(Br)cc1 [Derivative 5]
Survivability of the animals by day 28 ([3]; Intravenous administration): 60%
Body weight of the animals by the 20th day ([3]; Intravenous administration): 168 ± 7%
Survivability of the animals by day 28 [3, 6]: 61%
Body weight of the animals by the 20th day [3]: 161 ± 9%
